Data: paper PMC7604503, “Cyclic peptides can engage a single binding pocket through highly divergent modes” (Proceedings of the National Academy of Sciences of the …, 2020)
Where a SMILES comes first, the peptide text is derived from it. Bridges are numbered along the chain shown (N, C = ends).

Key:
Assay in all cases: BROMOscan competition binding assay (BromoMAX, Eurofins DiscoverX)
ATAD2A = biological target: T1, ATAD2A (Homo sapiens, UniProt Q6PL18); conditions: for Percent Control ATAD2A: compound concentration 1000 nM, lower percentage control = stronger affinity
T1 construct: purchased Eurofins DiscoverX (BROMOscan, BromoMAX)
T1 sequence (Q6PL18 1-1390): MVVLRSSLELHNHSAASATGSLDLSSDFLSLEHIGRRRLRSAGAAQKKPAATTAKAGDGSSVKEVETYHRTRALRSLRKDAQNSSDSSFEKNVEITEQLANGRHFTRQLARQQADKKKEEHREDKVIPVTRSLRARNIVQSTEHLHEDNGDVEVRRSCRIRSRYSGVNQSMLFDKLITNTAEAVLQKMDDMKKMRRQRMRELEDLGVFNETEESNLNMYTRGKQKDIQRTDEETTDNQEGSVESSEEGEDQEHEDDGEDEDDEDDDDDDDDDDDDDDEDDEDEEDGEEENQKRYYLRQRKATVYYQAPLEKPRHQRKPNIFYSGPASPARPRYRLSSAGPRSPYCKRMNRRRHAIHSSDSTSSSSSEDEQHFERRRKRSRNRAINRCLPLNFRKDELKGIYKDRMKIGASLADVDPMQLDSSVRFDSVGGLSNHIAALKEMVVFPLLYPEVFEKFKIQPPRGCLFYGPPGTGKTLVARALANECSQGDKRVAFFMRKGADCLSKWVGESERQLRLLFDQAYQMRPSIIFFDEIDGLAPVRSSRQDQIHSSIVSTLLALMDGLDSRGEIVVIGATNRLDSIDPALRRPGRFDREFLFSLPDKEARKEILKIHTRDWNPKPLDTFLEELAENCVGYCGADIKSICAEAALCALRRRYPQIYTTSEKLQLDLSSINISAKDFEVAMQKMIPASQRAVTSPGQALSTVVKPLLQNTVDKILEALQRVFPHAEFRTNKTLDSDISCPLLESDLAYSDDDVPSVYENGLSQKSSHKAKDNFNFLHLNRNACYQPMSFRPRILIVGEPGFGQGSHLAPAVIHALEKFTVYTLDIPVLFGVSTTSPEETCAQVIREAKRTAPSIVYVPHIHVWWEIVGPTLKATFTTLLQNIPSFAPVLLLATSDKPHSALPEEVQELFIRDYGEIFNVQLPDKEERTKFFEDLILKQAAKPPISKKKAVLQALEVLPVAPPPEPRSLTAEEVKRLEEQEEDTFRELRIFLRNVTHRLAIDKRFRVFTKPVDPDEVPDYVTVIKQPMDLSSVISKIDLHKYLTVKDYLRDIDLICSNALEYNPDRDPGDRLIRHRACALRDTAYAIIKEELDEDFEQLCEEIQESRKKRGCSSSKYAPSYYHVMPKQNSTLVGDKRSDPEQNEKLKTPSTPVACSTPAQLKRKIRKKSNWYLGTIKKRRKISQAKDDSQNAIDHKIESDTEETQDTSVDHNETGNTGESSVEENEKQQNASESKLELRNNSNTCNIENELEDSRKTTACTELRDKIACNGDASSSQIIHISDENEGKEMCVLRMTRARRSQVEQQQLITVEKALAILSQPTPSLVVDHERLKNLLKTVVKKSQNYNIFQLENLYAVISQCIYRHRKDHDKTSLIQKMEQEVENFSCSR

TAF1L(2) = biological target: T2, TAF1L(2) (Homo sapiens, UniProt Q8IZX4); conditions: for Percent Control TAF1L(2): compound concentration 1000 nM, lower percentage control = stronger affinity
T2 construct: TAF1L(2); purchased Eurofins DiscoverX (BROMOscan, BromoMAX)
T2 sequence (Q8IZX4 1519-1654 limits assumed): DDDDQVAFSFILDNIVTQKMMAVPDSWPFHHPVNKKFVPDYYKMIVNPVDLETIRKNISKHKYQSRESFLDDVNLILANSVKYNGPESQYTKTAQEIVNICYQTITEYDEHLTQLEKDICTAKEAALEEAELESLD

BRPF1 = biological target: T3, BRPF1 (Homo sapiens, UniProt P55201); conditions: for Percent Control BRPF1: compound concentration 1000 nM, lower percentage control = stronger affinity
T3 construct: purchased Eurofins DiscoverX (BROMOscan, BromoMAX)
T3 sequence (P55201 1-1214): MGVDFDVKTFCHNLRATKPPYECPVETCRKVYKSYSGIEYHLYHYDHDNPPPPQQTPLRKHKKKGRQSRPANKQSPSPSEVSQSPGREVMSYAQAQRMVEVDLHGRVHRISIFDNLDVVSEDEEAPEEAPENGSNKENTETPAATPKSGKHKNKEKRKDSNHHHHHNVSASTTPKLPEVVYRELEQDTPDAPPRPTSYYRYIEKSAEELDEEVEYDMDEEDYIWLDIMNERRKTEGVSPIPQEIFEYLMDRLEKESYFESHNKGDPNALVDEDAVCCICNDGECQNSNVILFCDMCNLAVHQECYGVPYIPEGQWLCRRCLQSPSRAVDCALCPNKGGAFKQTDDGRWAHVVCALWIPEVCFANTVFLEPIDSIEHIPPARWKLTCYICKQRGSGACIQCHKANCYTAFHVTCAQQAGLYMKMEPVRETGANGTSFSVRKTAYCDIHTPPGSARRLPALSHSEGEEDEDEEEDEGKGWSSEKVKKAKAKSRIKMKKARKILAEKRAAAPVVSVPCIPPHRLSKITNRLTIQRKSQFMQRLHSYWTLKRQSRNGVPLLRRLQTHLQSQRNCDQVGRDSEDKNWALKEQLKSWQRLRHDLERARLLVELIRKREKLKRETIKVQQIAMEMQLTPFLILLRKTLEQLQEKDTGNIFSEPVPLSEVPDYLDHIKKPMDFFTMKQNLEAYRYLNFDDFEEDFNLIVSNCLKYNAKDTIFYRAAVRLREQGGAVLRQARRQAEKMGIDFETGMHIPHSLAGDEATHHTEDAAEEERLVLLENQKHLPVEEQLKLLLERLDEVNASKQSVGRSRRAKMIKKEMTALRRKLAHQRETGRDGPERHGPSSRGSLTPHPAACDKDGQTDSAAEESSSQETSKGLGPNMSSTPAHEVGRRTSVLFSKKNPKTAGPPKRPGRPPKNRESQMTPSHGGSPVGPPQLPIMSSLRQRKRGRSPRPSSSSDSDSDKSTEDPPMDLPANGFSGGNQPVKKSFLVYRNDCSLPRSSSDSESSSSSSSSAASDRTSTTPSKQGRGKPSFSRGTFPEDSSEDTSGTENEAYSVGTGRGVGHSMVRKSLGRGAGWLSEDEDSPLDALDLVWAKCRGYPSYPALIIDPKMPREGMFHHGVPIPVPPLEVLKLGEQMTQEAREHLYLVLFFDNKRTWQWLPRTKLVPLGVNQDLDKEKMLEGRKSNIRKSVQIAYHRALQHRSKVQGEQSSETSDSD

TRIM33(PHD,Bromo.) = system: TRIM33(PHD,Bromo.); set-up: species or system human; conditions: compound concentration 1000 nM; lower percentage control = stronger affinity

SMILES | Percent Control ATAD2A (ATAD2A) [%] | Percent Control TAF1L(2) (TAF1L(2)) [%] | Percent Control BRPF1 (BRPF1) [%] | Percent Control TRIM33(PHD,Bromo.) (TRIM33(PHD,Bromo.)) [%] | percent of control binding at 1 µM (ATAD2A) [%] | remaining binding at 1 µM (TAF1L(2); read-out: Percent Control TAF1L(2)) [%] | remaining binding at 1 µM (BRPF1; read-out: Percent Control BRPF1) [%]
CC[C@H](C)[C@@H]1NC(=O)[C@H]([C@@H](C)O)NC(=O)[C@H](CCCCN)NC(=O)[C@H](Cc2c[nH]c3ccccc23)NC(=O)CSC[C@@H](C(N)=O)NC(=O)[C@H](CCC(N)=O)NC(=O)[C@H](CCCCNC(C)=O)NC(=O)[C@H]([C@@H](C)O)NC(=O)[C@H](CCCNC(=N)N)NC(=O)[C@H](Cc2c[nH]c3ccccc23)NC(=O)[C@H]([C@@H](C)O)NC(=O)[C@H](CCCCNC(C)=O)NC(=O)CNC(=O)[C@H](CCCCNC(C)=O)NC1=O [3.1B] ({CH2CO}-WKTIK(Ac)GK(Ac)TWRTK(Ac)QC-NH2; thioether N-14) | 92 | 100 | 100 | 100 | – | – | –
CC[C@H](C)[C@@H]1NC(=O)[C@H](Cc2c[nH]c3ccccc23)NC(=O)[C@H](Cc2c[nH]c3ccccc23)NC(=O)CSC[C@@H](C(N)=O)NC(=O)CNC(=O)[C@H](CCCCNC(C)=O)NC(=O)[C@H](CCCCN)NC(=O)[C@H](C(C)C)NC(=O)[C@H](CCCCNC(C)=O)NC(=O)[C@@H]2CCCN2C(=O)[C@H]([C@@H](C)CC)NC1=O [3.1C] ({CH2CO}-WWIIPK(Ac)VKK(Ac)GC-NH2; thioether N-11) | 92 | 100 | 100 | 100 | – | – | –
CC[C@H](C)[C@H](NC(=O)[C@H](CCCNC(=N)N)NC(=O)[C@H](CCCCNC(C)=O)NC(=O)[C@H](CCCNC(=N)N)NC(=O)[C@H](CC(C)C)NC(=O)[C@@H]1CSCC(=O)N[C@@H](Cc2c[nH]c3ccccc23)C(=O)N[C@@H](CCCCNC(C)=O)C(=O)NCC(=O)N[C@@H](Cc2ccc(O)cc2)C(=O)N[C@@H](CC(C)C)C(=O)N1)C(=O)N[C@@H](CCC(N)=O)C(=O)N[C@@H](CCCNC(=N)N)C(=O)N[C@H](C(=O)N[C@@H](Cc1ccc(O)cc1)C(=O)N[C@@H](CC(N)=O)C(N)=O)[C@@H](C)O [4.2C] ({CH2CO}-WK(Ac)GYLCLRK(Ac)RIQRTYN-NH2; thioether N-6) | – | – | – | 100 | 85 | 100 | 100
